The conditions of data set [1]: cited from earlier work.
Data set [2] is described as follows: Ketone blood concentration after ingestion of 1,3-butanediol (FIG. 5, FIG. 6). The class given is in vivo, human. From the text:
FIG. 5 depicts an exemplary ketone blood concentration after ingestion of racemic 1,3-butanediol.
FIG. 6 depicts a ketone blood concentration after one person ingested (D)-1,3-butanediol, compared to the results of two people ingesting racemic 1,3-butanediol.
It should also be noted that only the D enantiomer is active in the body as a source of extracellular fuel that is then transported into the cells. Ketone blood level meters currently on the market only measure the blood level of the D enantiomer. Products containing racemic salts require two to three times the amount of sodium, calcium and potassium for an equal amount of (D)-β-hydroxybutyrate. A reason the potential levels of (D)-β-hydroxybutyrate in the blood is over double compared with an equal amount of the racemic solutions is because the body has to waste energy and uses up some of the (D)-β-hydroxybutyrate to burn off the unnatural (L)-β-hydroxybutyrate.
FIG. 5 depicts exemplary results from ingestion of 33 ml racemic 1,3-butanediol. […] For example, as shown, 33 ml of the non-racemic (D) form provided an increase in ketones of approximately 3.2 mmol/L whereas the racemic form provided approximately 0.9-1.0 mmol/L increases over pre consumption ketone levels.

The subject of data set [3] is pyruvate dehydrogenase impairment. In words: Relief of fatigue and cognitive impairment in persons suffering with ALS. Format: in vivo, human. From the text: Persons suffering with ALS display chronic fatigue and chronic cognitive impairment. The mechanism of impairment has been traced to an impairment with pyruvate dehydrogenase in the mitochondria. Cells of the central nervous system, the heart and skeletal muscles, due to the impairment, lack the critical energy or ATP to function normally. (D)-β-hydroxybutyrate circumvents the pyruvate dehydrogenase impairment and provides for far higher energy and ATP creation in those cells. […] The dosing regimen should be between 5-60 grams 1-3 times per day with the preferred amount to be between 20-40 grams 3 times per day.

Each structure is given as a SMILES string. Where two headings read alike, the source gives them in different places.

With `CC(O)CC(=O)[O-].[K+]` (racemic) [racemic potassium β-hydroxybutyrate, potassium β-hydroxybutyrate], the blood ketones reachable result in data set [1] (consumed at about 100% of potassium's RDA) is given as “approximately 0.5 mmol/L”. In the case of `CC(O)CC(=O)[O-].[Na+]` (racemic) [racemic sodium β-hydroxybutyrate, sodium β-hydroxybutyrate], the blood ketones reachable entry in data set [1] (consumed at about 100-200% of the RDA for sodium) is recorded as “approximately 0.5 mmol/L”. As for `CC(O)CCO` (centres unmarked) [(D)-1,3-butanediol], the “amount of ketones (mmol) in the blood relative to racemic 1,3-butanediol” value in data set [2] (33 ml each, over a 120 minute period) is reported as “over double”. For the same molecule, the “increase in ketones over pre consumption ketone levels” value in data set [2] (ingestion of 33 ml) is given as “approximately 3.2 mmol/L”. For the molecule `C[C@@H](O)CC(=O)O` [(D)-β-hydroxybutyrate], the “time to significant reduction of fatigue and cognitive impairment after ingestion” value in data set [3] is at most 15 min.

The values are drawn from patent US12098411B2, “Exogenous ketone blend compositions for delivery of ketone bodies” (KetoneAid, Inc., priority 2016, dated 2024).
